Data on two compounds can be found in article PMC12073635, “Synthesis of Tricyclic and Tetracyclic Lactone Derivatives of Thieno[2,3-b]pyrazine or Thieno[2,3-b]quinoline: Preliminary Antitumor and Antiparasitic Activity Evaluation” (Molecules, 2025).

The subject of assay [1] is CaCo-2 (colorectal adenocarcinoma) cells. The experiment in a line: SRB cell growth inhibition assay, CaCo-2. Format: cell-based, human. The note with it: mean ± standard deviation.
The subject of assay [2] is AGS (gastric adenocarcinoma) cells. As to the kind of experiment: SRB cell growth inhibition assay, AGS. Type of assay: cell-based. The note with it: Homo sapiens, 72 h, mean ± standard deviation.
The subject of assay [3] is T. brucei Lister 427 bloodstream forms. The experiment in a line: Resazurin-based anti-T. brucei assay. Conditions: 72 h, dose-response; for IC50: Trypanosoma brucei. Type of assay: cell-based, Trypanosoma brucei.
The test system of assay [4] is five human tumor cell lines (CaCo-2, MCF-7, AGS, HeLa, NCI-H460). As to the kind of experiment: SRB assay, statements over the five human tumor cell lines. Type of assay: cell-based. Conditions: text statement over CaCo-2, MCF-7, AGS, read-out: GI50 in all tested human tumor cell lines. As to the method: The antitumor potential of the Sonogashira coupling products 2, tricyclic lactones 3 and 5, and tetracyclic lactones 7 was evaluated using the sulforhodamine B (SRB) assay against five human tumor cell lines: colorectal adenocarcinoma (CaCo-2), breast adenocarcinoma (MCF-7), gastric adenocarcinoma (AGS), cervical carcinoma (HeLa), and non-small cell lung cancer (NCI-H460). A primary pig liver cell culture (PLP2) was used to assess the toxicity of compounds.
The human tumor cell lines used were CaCo-2 (colorectal adenocarcinoma), MCF-7 (breast adenocarcinoma), AGS (gastric adenocarcinoma), HeLa (cervical carcinoma), NCI-H460 (lung carcinoma). Non-tumor cell lines were also tested: PLP2 (primary pig liver culture). All the cell lines were maintained in RPMI-1640 medium supplemented with 10% fetal bovine serum, glutamine (2 mM), penicillin (100 U/mL), and streptomycin ([…]), with the exception of PLP2, which was maintained in DMEM medium supplemented with fetal bovine serum (10%), glutamine and antibiotics. The culture flasks were incubated at 37 °C and with 5% CO2, under a humid atmosphere. The cells were used only when they had 70 to 80% confluence. […] Finally, an adhered SRB was solubilized with Tris (10 mM, 200 μL) and the absorbance at a wavelength of 540 nm was read in the Biotek ELX800 microplate reader. […]

Assay [5] deals with HeLa (cervical carcinoma) cells. The experiment in a line: SRB cell growth inhibition assay, HeLa. Type of assay: cell-based. The note with it: Homo sapiens, 72 h, mean ± standard deviation.
Assay [6] relates to MCF-7 (breast adenocarcinoma) cells. The experiment in a line: SRB cell growth inhibition assay, MCF-7. Format: cell-based, human. The note with it: mean ± standard deviation.

As for `COC(=O)c1sc2nccnc2c1C#Cc1ccccn1` [Compound 2f, Methyl 7-(pyridin-2-ylethynyl)thieno[2,3-b]pyrazine-6-carboxylate], the GI50 in assay [1] (72 h) is 3.72 ± 2.42 µM; in assay [1] (Homo sapiens, Caco-2, 72 h), less than 5 µM; in assay [2] it was 9.25 ± 0.61 µM; in assay [4] it was less than 10 µM; in assay [5], 5.44 ± 4.31 µM; in assay [6] (72 h), 4.08 ± 0.27 µM. For the same compound, the GI50 in assay [6] (Homo sapiens, MCF7, 72 h) is less than 5 µM. In addition, the “T. brucei IC50” value in assay [3] is reported as “low μM range”. Besides, in assay [3], the half-maximal inhibitory concentration (IC50) amounted to 6.43 µM.

`O=c1oc(-c2ccccn2)cc2c1sc1nccnc12` [Compound 3f, 8-(Pyridin-2-yl)-6H-pyrano[4′,3′:4,5]thieno[2,3-b]pyrazin-6-one]: the GI50 was 58.8 ± 2.44 µM in assay [1] (Homo sapiens, Caco-2, 72 h); 42.6 ± 3.96 µM in assay [2]; less than 10 µM in assay [4]; 58.8 ± 2.44 µM in assay [5]; 59.3 ± 2.45 µM in assay [6] (Homo sapiens, MCF7, 72 h). Moreover, the 50% inhibitory concentration (IC50) in assay [3] was less than 11 µM.
